In patent publication US9834542B2, “LXR modulators” (BRISTOL-MYERS SQUIBB COMPANY, priority 2013, dated 2017):

Target: T1, LXRβ (Homo sapiens, UniProt P55055)
T1 construct: Co-transfection expression plasmids, comprising full-length LXRα (pCMX-h LXRα[…] or LXRβ (pCMX-hLXRβ)); expressed in transfected cells; host or cells: CV-1 African Green Monkey Kidney Cells
T1 sequence (P55055 1-460): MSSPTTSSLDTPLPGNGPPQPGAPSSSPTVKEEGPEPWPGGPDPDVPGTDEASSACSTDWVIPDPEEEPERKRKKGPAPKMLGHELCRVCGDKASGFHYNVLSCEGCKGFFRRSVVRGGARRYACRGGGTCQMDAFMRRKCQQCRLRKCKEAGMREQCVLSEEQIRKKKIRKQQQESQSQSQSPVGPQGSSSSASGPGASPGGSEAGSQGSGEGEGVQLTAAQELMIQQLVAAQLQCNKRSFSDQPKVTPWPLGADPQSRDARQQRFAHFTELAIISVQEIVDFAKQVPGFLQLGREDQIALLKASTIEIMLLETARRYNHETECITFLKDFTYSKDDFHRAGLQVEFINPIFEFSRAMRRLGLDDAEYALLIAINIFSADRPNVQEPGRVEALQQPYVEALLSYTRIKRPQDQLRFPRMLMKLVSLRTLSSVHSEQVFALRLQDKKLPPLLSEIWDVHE
T1 sequence (P19793 1-462 partner): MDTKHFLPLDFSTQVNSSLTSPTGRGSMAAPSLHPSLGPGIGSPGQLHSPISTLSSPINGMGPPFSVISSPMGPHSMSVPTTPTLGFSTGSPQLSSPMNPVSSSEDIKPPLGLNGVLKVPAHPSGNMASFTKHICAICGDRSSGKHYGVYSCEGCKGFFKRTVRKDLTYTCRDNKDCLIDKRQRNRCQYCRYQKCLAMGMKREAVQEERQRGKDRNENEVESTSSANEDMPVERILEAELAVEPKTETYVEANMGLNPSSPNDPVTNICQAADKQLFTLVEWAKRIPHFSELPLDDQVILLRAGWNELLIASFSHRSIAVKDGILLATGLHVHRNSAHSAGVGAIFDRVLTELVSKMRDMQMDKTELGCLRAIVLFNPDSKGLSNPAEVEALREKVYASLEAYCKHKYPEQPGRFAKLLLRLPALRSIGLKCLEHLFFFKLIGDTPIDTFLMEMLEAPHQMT
Assay: Co-transfection assay (LXRE luciferase reporter), LXRβ
Assay type: cell-based
Conditions: for EC50: CV-1 cells transfected with pCMX-hLXRβ and LXREx1-Tk-Luciferase, 20 hours incubation; for Emax: LXRβ co-transfection, relative to high control 1-(2,4-difluorobenzyl)-2-oxo-6-(4-phenoxyphenyl)-4-(trifluoromethyl)-1,2-dihydropyridine-3-carbonitrile, read-out: % Efficacy
How it was run: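 CV-1 cells transiently co-transfected with full-length human LXRβ (or LXRα), LXREx1-Tk-luciferase reporter and β-galactosidase control; compound added (10 μM final in single-point, 11-point ½-log curves, ≤0.5% DMSO) for 20 h at 37 °C. Luciferase read; EC50 from four-parameter fit, efficacy relative to reference agonist high control.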

Compound	EC50 [nM]	Emax [%]
Cc1nc(-c2ccc3c(c2)OC(F)(F)O3)c(-c2cc(-c3cc(Cl)c(CO)c(S(C)(=O)=O)c3)ccc2-n2cc(C(F)(F)F)nc2C)o1 [Example 623, (3-chloro-3′-(4-(2,2-difluorobenzo[d][1,3]dioxol-5-yl)-2-methyloxazol-5-yl)-4′-(2-methyl-4-(trifluoromethyl)-1H-imidazol-1-yl)-5-(methylsulfonyl)-[1,1′-biphenyl]-4-yl)methanol]	203	80
Cc1nc(-c2ccc(OC(F)F)cc2)c(-c2cc(-c3cc(F)c(CO)c(S(C)(=O)=O)c3)ccc2-n2cc(C(F)(F)F)nc2C)o1 [Example 624, (3′-(4-(4-(difluoromethoxy)phenyl)-2-methyloxazol-5-yl)-3-fluoro-4′-(2-methyl-4-(trifluoromethyl)-1H-imidazol-1-yl)-5-(methylsulfonyl)-[1,1′-biphenyl]-4-yl)methanol]	42	112
Cc1nc(-c2ccc(OC(F)(F)F)cc2)c(-c2cc(-c3cccc([S+](C)[O-])c3)ccc2-n2cc(C(F)(F)F)nc2C)o1 (centres unmarked) [Example 627, 2-methyl-5-(4-(2-methyl-4-(trifluoromethyl)-1H-imidazol-1-yl)-3′-(methylsulfinyl)-[1,1′-biphenyl]-3-yl)-4-(4-(trifluoromethoxy)phenyl)oxazole]	269	93
Cc1nc(C(F)(F)F)cn1-c1ccc(-c2cccc(S(C)(=O)=O)c2)cc1-c1oc(CCN(C)C)nc1-c1ccc(OC(F)(F)F)cc1 [Example 628, N,N-dimethyl-2-(5-(4-(2-methyl-4-(trifluoromethyl)-1H-imidazol-1-yl)-3′-(methylsulfonyl)-[1,1′-biphenyl]-3-yl)-4-(4-(trifluoromethoxy)phenyl)oxazol-2-yl)ethanamine]	412	82
Cc1nc(-c2ccccc2C(F)(F)F)c(-c2cc(-c3cc(F)c(CO)c(S(C)(=O)=O)c3)ccc2-n2cc(C(F)(F)F)nc2C)o1 [Example 630, (3-fluoro-3′-(2-methyl-4-(2-(trifluoromethyl)phenyl)oxazol-5-yl)-4′-(2-methyl-4-(triftuoromethyl)-1H-imidazol-1-yl)-5-(methylsulfonyl)-[1,1′-biphenyl]-4-yl)methanol]	103	30
Cc1nc(C(F)(F)F)cn1-c1ccc(-c2ccc(CO)c(S(C)(=O)=O)c2)cc1-c1ocnc1Cc1ccc(Cl)cc1 [Example 635, (3′-(4-(4-chlorobenzyl)oxazol-5-yl)-4′-(2-methyl-4-(trifluoromethyl)-1H-imidazol-1-yl)-3-(methylsulfonyl)-[1,1′-biphenyl]-4-yl)methanol]	229	58
Cc1nc(C(F)(F)F)cn1-c1ccc(-c2cccc(S(C)(=O)=O)c2)cc1-c1ocnc1Cc1ccc(OC(F)(F)F)cc1 [Example 636, 5-(4-(2-methyl-4-(trifluoromethyl)-1H-imidazol-1-yl)-3′-(methylsulfonyl)-[1,1′-biphenyl]-3-yl)-4-(4-(trifluoromethoxy)benzyl)oxazole]	702	41
Cc1nc(C(F)(F)F)cn1-c1ccc(-c2cc(F)c(CO)c(S(C)(=O)=O)c2)cc1-c1nc(C(F)(F)F)cn1-c1ccc2c(c1)OC(F)(F)O2 [Example 638, (3′-(1-(2,2-difluorobenzo[d][1,3]dioxol-5-yl)-4-(trifluoromethyl)-1H-imidazol-2-yl)-3-fluoro-4′-(2-methyl-4-(trifluoromethyl)-1H-imidazol-1-yl)-5-(methylsulfonyl)biphenyl-4-yl)methanol]	143	79
Cc1nc(C(F)(F)F)cn1-c1ccc(-c2cc(F)c(CO)c(S(C)(=O)=O)c2)cc1-c1nc(C2CC2)cn1-c1ccc2c(c1)OC(F)(F)O2 [Example 639, (3′-(4-cyclopropyl-1-(2,2-difluorobenzo[d][1,3]dioxol-5-yl)-1H-imidazol-2-yl)-3-fluoro-4′-(2-methyl-4-(trifluoromethyl)-1H-imidazol-1-yl)-5-(methylsulfonyl)biphenyl-4-yl)methanol]	129	81

Further lines, results first:

EC50 [nM]	Emax [%]	Compound
73	117	Cc1nc(-c2ccc(OC(F)F)cc2)c(-c2cc(-c3ccc(CO)c(S(C)(=O)=O)c3)ccc2-n2cc(C(F)(F)F)nc2C)o1 [Example 625, (3′-(4-(4-(difluoromethoxy)phenyl)-2-methyloxazol-5-yl)-4′-(2-methyl-4-(trifluoromethyl)-1H-imidazol-1-yl)-3-(methylsulfonyl)-[1,1′-biphenyl]-4-yl)methanol]
57	62	Cc1nc(-c2ccc(OC(F)(F)F)cc2O)c(-c2cc(-c3cccc(S(C)(=O)=O)c3)ccc2-n2cc(C(F)(F)F)nc2C)o1 [Example 626, 2-(2-methyl-5-(4-(2-methyl-4-(trifluoromethyl)-1H-imidazol-1-yl)-3′-(methylsulfonyl)-[1,1′-biphenyl]-3-yl)oxazol-4-yl)-5-(trifluoromethoxy)phenol]
303	31	Cc1nc(-c2ccccc2C(F)(F)F)c(-c2cc(-c3cccc(S(C)(=O)=O)c3)ccc2-n2cc(C(F)(F)F)nc2C)o1 [Example 629, 2-methyl-5-(4-(2-methyl-4-(trifluoromethyl)-1H-imidazol-1-yl)-3′-(methylsulfonyl)-[1,1′-biphenyl]-3-yl)-4-(2-(trifluoromethyl)phenyl)oxazole]
216	43	Cc1nc(-c2ccccc2OC(F)(F)F)c(-c2cc(-c3cccc(S(C)(=O)=O)c3)ccc2-n2cc(C(F)(F)F)nc2C)o1 [Example 631, 2-methyl-5-(4-(2-methyl-4-(trifluoromethyl)-1H-imidazol-1-yl)-3′-(methylsulfonyl)-[1,1′-biphenyl]-3-yl)-4-(2-(trifluoromethoxy)phenyl)oxazole]
34	41	Cc1nc(-c2ccccc2OC(F)(F)F)c(-c2cc(-c3cc(F)c(CO)c(S(C)(=O)=O)c3)ccc2-n2cc(C(F)(F)F)nc2C)o1 [Example 632, (3-fluoro-3′-(2-methyl-4-(2-(trifluoromethoxy)phenyl)oxazol-5-yl)-4′-(2-methyl-4-(trifluoromethyl)-1H-imidazol-1-yl)-5-(methylsulfonyl)-[1,1′-biphenyl]-4-yl)methanol]
161	66	Cc1nc(C(F)(F)F)cn1-c1ccc(-c2cc(F)c(CO)c(S(C)(=O)=O)c2)cc1-c1ocnc1Cc1ccc(Cl)cc1 [Example 633, (3′-(4-(4-chlorobenzyl)oxazol-5-yl)-3-fluoro-4′-(2-methyl-4-(trifluoromethyl)-1H-imidazol-1-yl)-5-(methylsulfonyl)-[1,1′-biphenyl]-4-yl)methanol]
249	68	Cc1nc(C(F)(F)F)cn1-c1ccc(-c2cccc(S(C)(=O)=O)c2)cc1-c1ocnc1Cc1ccc(Cl)cc1 [Example 634, 4-(4-chlorobenzyl)-5-(4-(2-methyl-4-(trifluoromethyl)-1H-imidazol-1-yl)-3′-(methylsulfonyl)-[1,1′-biphenyl]-3-yl)oxazole]
579	40	COc1cc(OC(F)(F)F)ccc1-c1nc(C)oc1-c1cc(-c2cccc(S(C)(=O)=O)c2)ccc1-n1cc(C(F)(F)F)nc1C [Example 637, 4-(2-methoxy-4-(trifluoromethoxy)phenyl)-2-methyl-5-(4-(2-methyl-4-(trifluoromethyl)-1H-imidazol-1-yl)-3′-(methylsulfonyl)-[1,1′-biphenyl]-3-yl)oxazole]
218	61	Cc1nc(C(F)(F)F)cn1-c1ccc(-c2cccc(S(C)(=O)=O)c2)cc1-c1nc(C(F)(F)F)cn1-c1ccc2c(c1)OC(F)(F)O2 [Example 640, 1-(2,2-difluorobenzo[d][1,3]dioxol-5-yl)-2-(4-(2-methyl-4-(trifluoromethyl)-1H-imidazol-1-yl)-3′-(methylsulfonyl)biphenyl-3-yl)-4-(trifluoromethyl)-1H-imidazole]
721	59	Cc1nc(C(F)(F)F)cn1-c1ccc(-c2cc(F)cc(S(C)(=O)=O)c2)cc1-c1nc(C(F)(F)F)cn1-c1ccc2c(c1)OC(F)(F)O2 [Example 641, 1-(2,2-difluorobenzo[d][1,3]dioxol-5-yl)-2-(3′-fluoro-4-(2-methyl-4-(trifluoromethyl)-1H-imidazol-1-yl)-5′-(methylsulfonyl)biphenyl-3-yl)-4-(trifluoromethyl)-1H-imidazole]
